{
  "source": "PubChem BioAssay AID342",
  "about": "(DTP/NCI, 2004)",
  "test_system": "Swiss mice, Sarcoma 180 sc, mean tumor weight T/C",
  "assay": "NCI In Vivo Anticancer Drug Screen. Data for tumor model Sarcoma 180 (subcutaneous) in Swiss mice",
  "settings": "endpoint: mean tumor weight, higher = larger tumour",
  "in_short": "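Antitumor activity is assessed in mice with transplantable tumors. Treated (T) and vehicle control (C) groups are compared on survival or tumor size.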",
  "note": "Values joined by “and” are separate entries in the source; they are usually repeats but may differ in a detail not shown here. Equal values may be shown once.",
  "data": [
    {"smiles": "COc1ccc2c(c[n+](C)c3c4cc5c(cc4ccc23)OCO5)c1OC", "values": [
      {"measurement": "T/C", "setting": "dose: 50.0 mg/kg/injection, schedule: Q01DX007 (ip), vehicle: carboxymethylcellulose (CMC)", "value": "60 % of control"},
      {"measurement": "T/C", "setting": "dose: 100.0 mg/kg/injection, schedule: Q01DX007 (ip), vehicle: carboxymethylcellulose (CMC)", "value": "83 % of control"}
    ]},
    {"smiles": "C1OC1C1CO1", "note": "(stereo unspecified)", "values": [
      {"measurement": "T/C", "setting": "dose: 4.5 mg/kg/injection, schedule: Q01DX007 (ip), vehicle: carboxymethylcellulose (CMC)", "value": "68 % of control"},
      {"measurement": "T/C", "setting": "dose: 4.63 mg/kg/injection, schedule: Q01DX007 (ip), vehicle: carboxymethylcellulose (CMC)", "value": "99 % of control"},
      {"measurement": "T/C", "setting": "dose: 9.0 mg/kg/injection, schedule: Q01DX007 (ip), vehicle: carboxymethylcellulose (CMC)", "value": "97 % of control"},
      {"measurement": "T/C", "setting": "dose: 9.25 mg/kg/injection, schedule: Q01DX007 (ip), vehicle: carboxymethylcellulose (CMC)", "value": "74 % of control"},
      {"measurement": "T/C", "setting": "dose: 13.76 mg/kg/injection, schedule: Q01DX007 (ip), vehicle: carboxymethylcellulose (CMC)", "value": "80 % of control"},
      {"measurement": "T/C", "setting": "dose: 17.2 mg/kg/injection, schedule: Q01DX007 (ip), vehicle: carboxymethylcellulose (CMC)", "value": "107 % of control"},
      {"measurement": "T/C", "setting": "dose: 18.0 mg/kg/injection, schedule: Q01DX007 (ip), vehicle: carboxymethylcellulose (CMC)", "value": "53 % of control"},
      {"measurement": "T/C", "setting": "dose: 18.5 mg/kg/injection, schedule: Q01DX007 (ip), vehicle: carboxymethylcellulose (CMC)", "value": "71 % of control"},
      {"measurement": "T/C", "setting": "dose: 22.93 mg/kg/injection, schedule: Q01DX007 (ip), vehicle: carboxymethylcellulose (CMC)", "value": "82 % of control"},
      {"measurement": "T/C", "setting": "dose: 34.4 mg/kg/injection, schedule: Q01DX007 (ip), vehicle: carboxymethylcellulose (CMC)", "value": "80 % of control"}
    ]},
    {"smiles": "C[C@@H]1C[C@@H]([C@H](O)CC2CC(=O)NC(=O)C2)C(=O)[C@@H](C)C1", "values": [
      {"measurement": "T/C", "setting": "dose: 3.0 mg/kg/injection, schedule: Q#A X014 (ip), vehicle: carboxymethylcellulose (CMC)", "value": "79 % of control and 92 % of control"},
      {"measurement": "T/C", "setting": "dose: 6.25 mg/kg/injection, schedule: Q#A X014 (ip), vehicle: carboxymethylcellulose (CMC)", "value": "77 % of control"},
      {"measurement": "T/C", "setting": "dose: 9.6 mg/kg/injection, schedule: Q01DX007 (ip), vehicle: carboxymethylcellulose (CMC)", "value": "85 % of control and 96 % of control and 106 % of control"},
      {"measurement": "T/C", "setting": "dose: 12.0 mg/kg/injection, schedule: Q01DX007 (ip), vehicle: carboxymethylcellulose (CMC)", "value": "100 % of control (2×) and 122 % of control"},
      {"measurement": "T/C", "setting": "dose: 12.0 mg/kg/injection, schedule: Q#A X014 (ip), vehicle: carboxymethylcellulose (CMC)", "value": "38 % of control and 63 % of control"},
      {"measurement": "T/C", "setting": "dose: 12.5 mg/kg/injection, schedule: Q#A X014 (ip), vehicle: carboxymethylcellulose (CMC)", "value": "68 % of control"},
      {"measurement": "T/C", "setting": "dose: 24.0 mg/kg/injection, schedule: Q01DX007 (ip), vehicle: carboxymethylcellulose (CMC)", "value": "58 % of control and 60 % of control and 65 % of control"}
    ]},
    {"smiles": "COC(=O)CC(C(=O)C=[N+]=[N-])N1C(=O)c2ccccc2C1=O", "note": "(stereo unspecified)", "values": [
      {"measurement": "T/C", "setting": "dose: 0.03 mg/kg/injection, schedule: Q01DX007 (ip), vehicle: carboxymethylcellulose (CMC)", "value": "112 % of control"},
      {"measurement": "T/C", "setting": "dose: 0.05 mg/kg/injection, schedule: Q01DX007 (ip), vehicle: carboxymethylcellulose (CMC)", "value": "89 % of control"},
      {"measurement": "T/C", "setting": "dose: 0.1 mg/kg/injection, schedule: Q01DX007 (ip), vehicle: carboxymethylcellulose (CMC)", "value": "101 % of control"},
      {"measurement": "T/C", "setting": "dose: 0.2 mg/kg/injection, schedule: Q01DX007 (ip), vehicle: carboxymethylcellulose (CMC)", "value": "95 % of control and 102 % of control"},
      {"measurement": "T/C", "setting": "dose: 0.4 mg/kg/injection, schedule: Q01DX007 (ip), vehicle: carboxymethylcellulose (CMC)", "value": "115 % of control"},
      {"measurement": "T/C", "setting": "dose: 0.8 mg/kg/injection, schedule: Q01DX007 (ip), vehicle: carboxymethylcellulose (CMC)", "value": "88 % of control and 91 % of control"},
      {"measurement": "T/C", "setting": "dose: 3.2 mg/kg/injection, schedule: Q01DX007 (ip), vehicle: carboxymethylcellulose (CMC)", "value": "99 % of control"},
      {"measurement": "T/C", "setting": "dose: 6.4 mg/kg/injection, schedule: Q01DX007 (ip), vehicle: carboxymethylcellulose (CMC)", "value": "70 % of control and 83 % of control"},
      {"measurement": "T/C", "setting": "dose: 12.8 mg/kg/injection, schedule: Q01DX007 (ip), vehicle: carboxymethylcellulose (CMC)", "value": "87 % of control"},
      {"measurement": "T/C", "setting": "dose: 25.6 mg/kg/injection, schedule: Q01DX007 (ip), vehicle: carboxymethylcellulose (CMC)", "value": "84 % of control"}
    ]},
    {"smiles": "O=[N+]([O-])c1ccc(C=Nc2ccc3c(c2)C(Br)c2ccccc2-3)cc1", "note": "(stereo unspecified)", "values": [
      {"measurement": "T/C", "setting": "dose: 55.0 mg/kg/injection, schedule: Q#A X014 (ip), vehicle: saline", "value": "56 % of control"},
      {"measurement": "T/C", "setting": "dose: 83.0 mg/kg/injection, schedule: Q#A X014 (ip), vehicle: saline", "value": "30 % of control and 37 % of control"},
      {"measurement": "T/C", "setting": "dose: 110.0 mg/kg/injection, schedule: Q01DX007 (ip), vehicle: saline", "value": "88 % of control"},
      {"measurement": "T/C", "setting": "dose: 125.0 mg/kg/injection, schedule: Q#A X014 (ip), vehicle: saline", "value": "28 % of control and 37 % of control"},
      {"measurement": "T/C", "setting": "dose: 166.0 mg/kg/injection, schedule: Q01DX007 (ip), vehicle: saline", "value": "85 % of control"},
      {"measurement": "T/C", "setting": "dose: 187.5 mg/kg/injection, schedule: Q#A X014 (ip), vehicle: saline", "value": "18 % of control"},
      {"measurement": "T/C", "setting": "dose: 250.0 mg/kg/injection, schedule: Q01DX007 (ip), vehicle: saline", "value": "94 % of control"},
      {"measurement": "T/C", "setting": "dose: 375.0 mg/kg/injection, schedule: Q01DX007 (ip), vehicle: saline", "value": "61 % of control"}
    ]},
    {"smiles": "O=C1c2ccccc2C(=O)c2c1ccc1c2[nH]c2ccccc21", "values": [
      {"measurement": "T/C", "setting": "dose: 82.0 mg/kg/injection, schedule: Q01DX007 (ip), vehicle: saline", "value": "48 % of control"},
      {"measurement": "T/C", "setting": "dose: 125.0 mg/kg/injection, schedule: Q01DX007 (ip), vehicle: saline", "value": "50 % of control"},
      {"measurement": "T/C", "setting": "dose: 187.0 mg/kg/injection, schedule: Q01DX007 (ip), vehicle: saline", "value": "23 % of control"},
      {"measurement": "T/C", "setting": "dose: 280.0 mg/kg/injection, schedule: Q01DX007 (ip), vehicle: saline", "value": "42 % of control"}
    ]},
    {"smiles": "CN1Cc2c(ccc3c2OCO3)[C@@H]2[C@H](O)Cc3cc4c(cc3[C@@H]21)OCO4", "values": [
      {"measurement": "T/C", "setting": "dose: 150.0 mg/kg/injection, schedule: Q01DX007 (ip), vehicle: carboxymethylcellulose (CMC)", "value": "93 % of control"}
    ]},
    {"smiles": "O=C(O)c1cc2ccccc2c(Br)c1O.OC1CCC(Br)C2CCC[N-]C12.[Cu+]", "values": [
      {"measurement": "T/C", "setting": "dose: 0.5 mg/kg/injection, schedule: Q01DX007 (ip), vehicle: carboxymethylcellulose (CMC)", "value": "74 % of control"},
      {"measurement": "T/C", "setting": "dose: 1.0 mg/kg/injection, schedule: Q01DX007 (ip), vehicle: carboxymethylcellulose (CMC)", "value": "90 % of control and 95 % of control"},
      {"measurement": "T/C", "setting": "dose: 2.0 mg/kg/injection, schedule: Q01DX007 (ip), vehicle: carboxymethylcellulose (CMC)", "value": "101 % of control and 109 % of control"},
      {"measurement": "T/C", "setting": "dose: 4.0 mg/kg/injection, schedule: Q01DX007 (ip), vehicle: carboxymethylcellulose (CMC)", "value": "83 % of control"}
    ]}
  ]
}
